{
  "source": "the supplement of paper PMC11208160",
  "data": [
    {"test": "recombinant barcode read abundance after kanamycin selection (control-corrected) (log10(CPM+1)); higher = more efficient recombination; sequences stand for … in AGTGCAGAGAAAATCGGCCAGTTTTCTCTGCCTGCAGTCCGCATGCCGT…ATTTATGCAGCGGACTGCCTTTCTCCCAAAGTGATAAACCGGACAGTATCATGGACCGGTTTTCCCGGTAATCCGTATTTGCAAGGTTGGTTTCACT; site = the 11-nt target", "summary_of_the_method": "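The screen was pooled in E. coli and paired targets with IS621 bridge RNA target-binding loops. Recombination efficiency is taken from barcode counts per million at recombinant junctions, averaged and adjusted against the control. Values, in the form log10(CPM+1), come from duplicate plating on chloramphenicol/ampicillin LB agar or on chloramphenicol/ampicillin/kanamycin with 0.1 mM IPTG.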", "values": [
      {"sequence": "TGATACCTCTGGGTTCTAACCTGTTGCGTAG [TGATACCCTAC_LTGcore_TC_RTGcore_CT] (site TGATACCCTAC) (LTG core: TC, RTG core: CT)", "recombinant barcode read abundance (log10)": 0.146},
      {"sequence": "TGATACCTTTGGGTTCTAACCTGTTGCGTAG [TGATACCCTAC_LTGcore_TT_RTGcore_CT] (site TGATACCCTAC) (LTG core: TT, RTG core: CT)", "recombinant barcode read abundance (log10)": 0.0115},
      {"sequence": "TGTATTCAGTGGGTTCTAACCTGTTGCCTAG [TGTATTCCTAG_LTGcore_AG_RTGcore_CT] (site TGTATTCCTAG) (LTG core: AG, RTG core: CT)", "recombinant barcode read abundance (log10)": 0.0134},
      {"sequence": "TGTATTCATTGGGTTCTAACCTGTTGCCTAT [TGTATTCCTAG_LTGcore_AT_RTGcore_AT] (site TGTATTCCTAG) (LTG core: AT, RTG core: AT)", "recombinant barcode read abundance (log10)": 0.144},
      {"sequence": "TGTATTCCATGGGTTCTAACCTGTTGCCTTG [TGTATTCCTAG_LTGcore_CA_RTGcore_CA] (site TGTATTCCTAG) (LTG core: CA, RTG core: CA)", "recombinant barcode read abundance (log10)": 0.579},
      {"sequence": "TGTATTCCGTGGGTTCTAACCTGTTGCCTAG [TGTATTCCTAG_LTGcore_CG_RTGcore_CT] (site TGTATTCCTAG) (LTG core: CG, RTG core: CT)", "recombinant barcode read abundance (log10)": 0.356},
      {"sequence": "TGTATTCCGTGGGTTCTAACCTGTTGCCTCG [TGTATTCCTAG_LTGcore_CG_RTGcore_CG] (site TGTATTCCTAG) (LTG core: CG, RTG core: CG)", "recombinant barcode read abundance (log10)": 0.0909},
      {"sequence": "TGTATTCCTTGGGTTCTAACCTGTTGCCTAC [TGTATTCCTAG_LTGcore_CT_RTGcore_GT] (site TGTATTCCTAG) (LTG core: CT, RTG core: GT)", "recombinant barcode read abundance (log10)": 0.0923},
      {"sequence": "TGTATTCCTTGGGTTCTAACCTGTTGCCTCA [TGTATTCCTAG_LTGcore_CT_RTGcore_TG] (site TGTATTCCTAG) (LTG core: CT, RTG core: TG)", "recombinant barcode read abundance (log10)": 0.1},
      {"sequence": "TGTATTCCTTGGGTTCTAACCTGTTGCCTCT [TGTATTCCTAG_LTGcore_CT_RTGcore_AG] (site TGTATTCCTAG) (LTG core: CT, RTG core: AG)", "recombinant barcode read abundance (log10)": 0.0303},
      {"sequence": "TGTATTCCTTGGGTTCTAACCTGTTGCCTTG [TGTATTCCTAG_LTGcore_CT_RTGcore_CA] (site TGTATTCCTAG) (LTG core: CT, RTG core: CA)", "recombinant barcode read abundance (log10)": 0.0735},
      {"sequence": "TGTATTCTCTGGGTTCTAACCTGTTGCCTAG [TGTATTCCTAG_LTGcore_TC_RTGcore_CT] (site TGTATTCCTAG) (LTG core: TC, RTG core: CT)", "recombinant barcode read abundance (log10)": 0.0135},
      {"sequence": "TTATAAAAATGGGTTCTAACCTGTTGCCTTT [TTATAAACTAG_LTGcore_AA_RTGcore_AA] (site TTATAAACTAG) (LTG core: AA, RTG core: AA)", "recombinant barcode read abundance (log10)": 0.038},
      {"sequence": "TTATAAAACTGGGTTCTAACCTGTTGCCTAG [TTATAAACTAG_LTGcore_AC_RTGcore_CT] (site TTATAAACTAG) (LTG core: AC, RTG core: CT)", "recombinant barcode read abundance (log10)": 0.39},
      {"sequence": "TTATAAAATTGGGTTCTAACCTGTTGCCTAG [TTATAAACTAG_LTGcore_AT_RTGcore_CT] (site TTATAAACTAG) (LTG core: AT, RTG core: CT)", "recombinant barcode read abundance (log10)": 0.0851},
      {"sequence": "TTATAAAATTGGGTTCTAACCTGTTGCCTAT [TTATAAACTAG_LTGcore_AT_RTGcore_AT] (site TTATAAACTAG) (LTG core: AT, RTG core: AT)", "recombinant barcode read abundance (log10)": 0.124},
      {"sequence": "TTATAAACCTGGGTTCTAACCTGTTGCCTGG [TTATAAACTAG_LTGcore_CC_RTGcore_CC] (site TTATAAACTAG) (LTG core: CC, RTG core: CC)", "recombinant barcode read abundance (log10)": 0.0325},
      {"sequence": "TTATAAACTTGGGTTCTAACCTGTTGCCTAC [TTATAAACTAG_LTGcore_CT_RTGcore_GT] (site TTATAAACTAG) (LTG core: CT, RTG core: GT)", "recombinant barcode read abundance (log10)": 0.944},
      {"sequence": "TTATAAACTTGGGTTCTAACCTGTTGCCTAT [TTATAAACTAG_LTGcore_CT_RTGcore_AT] (site TTATAAACTAG) (LTG core: CT, RTG core: AT)", "recombinant barcode read abundance (log10)": 0.302},
      {"sequence": "TTATAAACTTGGGTTCTAACCTGTTGCCTGG [TTATAAACTAG_LTGcore_CT_RTGcore_CC] (site TTATAAACTAG) (LTG core: CT, RTG core: CC)", "recombinant barcode read abundance (log10)": 0.574},
      {"sequence": "TTATAAACTTGGGTTCTAACCTGTTGCCTTT [TTATAAACTAG_LTGcore_CT_RTGcore_AA] (site TTATAAACTAG) (LTG core: CT, RTG core: AA)", "recombinant barcode read abundance (log10)": 0.0604},
      {"sequence": "TTATAAAGTTGGGTTCTAACCTGTTGCCTAG [TTATAAACTAG_LTGcore_GT_RTGcore_CT] (site TTATAAACTAG) (LTG core: GT, RTG core: CT)", "recombinant barcode read abundance (log10)": 0.109},
      {"sequence": "TTATAAATATGGGTTCTAACCTGTTGCCTTA [TTATAAACTAG_LTGcore_TA_RTGcore_TA] (site TTATAAACTAG) (LTG core: TA, RTG core: TA)", "recombinant barcode read abundance (log10)": 0.855},
      {"sequence": "TTATAAATGTGGGTTCTAACCTGTTGCCTAG [TTATAAACTAG_LTGcore_TG_RTGcore_CT] (site TTATAAACTAG) (LTG core: TG, RTG core: CT)", "recombinant barcode read abundance (log10)": 0.083},
      {"sequence": "TTATAAATTTGGGTTCTAACCTGTTGCCTAG [TTATAAACTAG_LTGcore_TT_RTGcore_CT] (site TTATAAACTAG) (LTG core: TT, RTG core: CT)", "recombinant barcode read abundance (log10)": 0.0473}
    ]}
  ]
}
